According to publication PMC6450699 (Archives of biochemistry and biophysics, 2018):

Molecular target: human cytochrome P450 3A4 (CYP3A4) (Homo sapiens, UniProt P08684, C58T/C64A/C98S/F215C/C239S/C468G)
Experiment: purified enzyme with CPR: fluorescent HFC production and NADPH consumption
Assay type: biochemical

human cytochrome P450 3A4 (CYP3A4), sequence (P08684 13-503 C58T/C64A/C98S/F215C/C239S/C468G): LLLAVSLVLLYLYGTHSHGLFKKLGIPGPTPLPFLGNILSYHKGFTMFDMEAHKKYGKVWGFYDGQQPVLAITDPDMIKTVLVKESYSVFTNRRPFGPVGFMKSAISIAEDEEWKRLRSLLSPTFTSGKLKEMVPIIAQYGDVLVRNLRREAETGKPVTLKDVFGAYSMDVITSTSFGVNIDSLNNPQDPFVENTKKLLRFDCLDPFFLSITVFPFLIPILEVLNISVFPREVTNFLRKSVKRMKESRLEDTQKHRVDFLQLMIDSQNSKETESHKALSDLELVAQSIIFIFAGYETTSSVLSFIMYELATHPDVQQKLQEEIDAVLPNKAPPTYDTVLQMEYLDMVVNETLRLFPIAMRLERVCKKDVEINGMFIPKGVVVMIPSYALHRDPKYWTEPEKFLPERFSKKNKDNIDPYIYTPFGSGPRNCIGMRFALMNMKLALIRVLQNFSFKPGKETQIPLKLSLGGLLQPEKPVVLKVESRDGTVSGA

## O=c1cc(C(F)(F)F)c2ccc(OCc3ccccc3)cc2o1 [BFC, 7-benzyloxy-4-trifluoromethylcoumarin]
  HFC produced^b: 0.0044 ± 0.0008 μmol/min/μmol enzyme
